Assay results as given in ChEMBL document CHEMBL4825714, “Hinge Binder Scaffold Hopping Identifies Potent Calcium/Calmodulin-Dependent Protein Kinase Kinase 2 (CAMKK2) Inhibitor Chemotypes” (J Med Chem, 2021).
Values after ≈ are worked out from the molar mass of the structure shown.

experiment: Solubility of the compound; type: physicochemical

solubility [µg/mL]	SMILES
62.6 (≈ 193 µM)	O=C(O)c1ccc(-c2ncnc3sccc23)cc1C1CCCC1
10.6 (≈ 29.5 µM)	O=C(O)c1ccc(-c2ccnc(Nc3ccccc3)n2)cc1C1CCCC1
40 (≈ 125 µM)	Cn1ccc2c(-c3ccc(C(=O)O)c(C4CCCC4)c3)ccnc21
19.4 (≈ 72.3 µM)	O=C(O)c1ccc(-c2ccncn2)cc1C1CCCC1

The remaining lines, values behind:

SMILES	solubility [µg/mL]
O=C(O)c1ccc(-c2ncnc3ccc(-c4ccccc4)cc23)cc1C1CCCC1	70.4 (≈ 178 µM)
O=C(O)c1ccc(-c2cnn3ccc(-c4ccccc4)cc23)cc1C1CCCC1	42 (≈ 110 µM)
O=C(O)c1ccc(-c2ccnc3ccccc23)cc1C1CCCC1	64.4 (≈ 203 µM)
O=C(O)c1ccc(-c2csc3ncc(-c4ccccc4)cc23)cc1C1CCCC1	1.5 (≈ 3.75 µM)
O=C(O)c1ccc(-c2ccnc3ccc(-c4ccccc4)cc23)cc1C1CCCC1	38 (≈ 96.6 µM)
O=C(O)c1ccc(-c2c[nH]c3ncc(-c4ccccc4)cc23)cc1C1CCCC1 [GSK-650394]	2 (≈ 5.23 µM)
